# Measured values: patent US12507703B2, “Methods, devices and compositions for preserving human milk” (The Trustees of Princeton University, priority 2023, dated 2025)
# Where “and” joins values, the source holds several entries; their conditions need not be identical. Equal values may be shown once.
# Test system: lipase
# Experiment: Lipase/lipolysis assay (EnzChek Lipase Substrate, quenched BODIPY-fatty acid conjugate) on stored human milk; for Lipase (RFU): test concentration or dose not given here
Molecule,Lipase (RFU),Hit in lipase inhibition screen (in words),Effect on lipase / lipolysis (in words),Synergistic effect in combination testing (in words)
C[C@@H]1O[C@@H](O[C@@H]2[C@@H](O)[C@H](O)[C@@H](CO)O[C@H]2c2c(O)cc(O)c3c(=O)cc(-c4ccc(O)cc4)oc23)[C@H](O)[C@H](O)[C@H]1O [Vitexin-2″-O-rhamnoside],747.1181 RFU,,,
CC1=C(C)C(=O)O[C@@H]([C@](C)(O)[C@H]2CC[C@H]3[C@@H]4[C@@H]5O[C@@H]5[C@@]5(O)CC=CC(=O)[C@]5(C)[C@H]4CC[C@]23C)C1 [Withanolide A],840.7696 RFU,,,
O=c1ccc2cc3ccoc3c(O)c2o1 [Xanthotoxol],1117.591 RFU,,,
O=C(O)c1cc(O)c2cccc(O)c2n1 [Xanthurenic acid],1023.37 RFU,,,
OC1OC[C@@H](O[C@@H]2OC[C@@H](O)[C@H](O)[C@H]2O)[C@H](O)[C@H]1O (stereo partly drawn) [Xylobiose],862.1511 RFU,,,
C[C@H]1CCCC(=O)CCC/C=C/c2cc(O)cc(O)c2C(=O)O1 [Zearalenone],758.7174 RFU,,,
CC1=C(/C=C/C(C)=C/C=C/C(C)=C/C(=O)O)C(C)(C)CCC1=O [all-trans-4-Oxoretinoic acid],984.8749 RFU,,,
C/C=C/c1cc(OC)c(OC)cc1OC [alpha-Asarone],956.156 RFU,,,
COc1c(O)cc2oc3cc(O)c(CC=C(C)C)c(O)c3c(=O)c2c1CC=C(C)C [alpha-Mangostin],1061.941 RFU,,,
CC(C)=CC(=O)C[C@H](C)c1ccc(C)cc1 [ar-Turmerone],1106.99 RFU,,,
O=P(O)(O)OC(CO)CO [b-Glycerol Phosphate],984.3562 RFU,,,
COc1cc2oc3cc(O)c(OC)c(CC=C(C)C)c3c(=O)c2c(O)c1CC=C(C)C [beta-Mangostin],828.6091 RFU,,,
O=C(O)[C@@H]1C[C@H](O)CN1 [cis-4-Hydroxy-L-proline],944.0714 RFU,,,
C=C(C)[C@H]1C=C[C@@](C)(O)CC1 [cis-Isolimonenol],930.1567 RFU,,,
CC/C=C\CC1=C(C)CCC1=O [cis-Jasmone],1015.76 RFU,,,
O[C@H]1[C@H](O)[C@@H](O)[C@H](O)[C@@H](O)[C@H]1O [i-Inositol],1026.636 RFU and 1128.491 RFU,,,
COc1cccc(C=O)c1 [m-Anisaldehyde],1038.646 RFU,,,
Cc1cccc(C=O)c1 [m-Tolualdehyde],859.0901 RFU,,,
OC[C@@H](O)[C@@H](O)CO [meso-Erythritol],838.849 RFU,,,
Cc1ccc(OS(=O)(=O)[O-])cc1.[K+] [p-Cresyl sulfate (potassium)],825.569 RFU,,,
Cc1ccc(C=O)cc1 [p-Tolualdehyde],1029.761 RFU,,,
O=C(O)[C@@H]1C[C@@H](O)CN1 [trans-4-Hydroxy L-Proline],608.0856 RFU,,,
O=C(O)/C=C(\CC(=O)O)C(=O)O [trans-Aconitic acid],946.0721 RFU,,,
CCCCCC/C=C/CCCCCCCCCC(=O)O [trans-Vaccenic acid],932.0426 RFU,,,
C/C(=C\CNc1ncnc2c1ncn2[C@@H]1O[C@H](CO)[C@@H](O)[C@H]1O)CO [trans-Zeatinriboside],823.084 RFU,,,
CC1=CCC(=O)O1 [α-Angelica lactone],1137.248 RFU,,,

Molecule,Lipase (RFU),Hit in lipase inhibition screen (in words),Effect on lipase / lipolysis (in words),Synergistic effect in combination testing (in words)
OC[C@H]1O[C@@H](O[C@H]2[C@H](O)[C@@H](O)[C@@H](O)O[C@@H]2CO)[C@H](O)[C@@H](O)[C@H]1O [α-Lactose],963.7922 RFU,,,
C[C@H]1CC[C@@H]2[C@@H](C)[C@H]3[C@H](C[C@H]4[C@@H]5CC=C6C[C@@H](O[C@@H]7O[C@H](CO)[C@H](O)[C@H](O[C@@H]8O[C@H](CO)[C@@H](O)[C@H](O)[C@H]8O)[C@H]7O[C@@H]7O[C@@H](C)[C@H](O)[C@@H](O)[C@H]7O)CC[C@]6(C)[C@H]5CC[C@]34C)N2C1 [α-Solanine],840.4474 RFU,,,
CC(C)[C@]12CC(=O)[C@H](C)[C@H]1C2 [α-Thujone],659.4321 RFU,,,
N#CCCN [β-Aminopropionitrile],985.2024 RFU,,,
CC1(C)CC[C@]2(C)CC[C@]3(C)C(=CC[C@@H]4[C@@]5(C)CC[C@H](O)C(C)(C)[C@@H]5CC[C@]43C)[C@@H]2C1 [β-Amyrin],1183.423 RFU,,,
CC1=C(/C=C/C(C)=C/C=C/C(C)=C/C=C/C=C(C)/C=C/C=C(\C)C=O)C(C)(C)CCC1 [β-Apo-8′-carotenal],958.4764 RFU and 851.8107 RFU,,,
C[C@H]1[C@H](C)CC[C@]2(C)CC[C@]3(C)C(=CC[C@@H]4[C@@]5(C)CC[C@@H](O)[C@](C)(C(=O)O)[C@@H]5CC[C@]43C)[C@H]12 [β-Boswellic acid],813.2666 RFU,,,
C=C1CC/C=C(\C)CC[C@@H]2[C@@H]1CC2(C)C [β-Caryophyllene],881.1948 RFU,,,
OC[C@H]1O[C@@H]2O[C@H]3[C@H](O)[C@@H](O)[C@@H](O[C@H]4[C@H](O)[C@@H](O)[C@@H](O[C@H]5[C@H](O)[C@@H](O)[C@@H](O[C@H]6[C@H](O)[C@@H](O)[C@@H](O[C@H]7[C@H](O)[C@@H](O)[C@@H](O[C@H]8[C@H](O)[C@@H](O)[C@@H](O[C@H]1[C@H](O)[C@H]2O)O[C@@H]8CO)O[C@@H]7CO)O[C@@H]6CO)O[C@@H]5CO)O[C@@H]4CO)O[C@@H]3CO [β-Cyclodextrin],886.2621 RFU,,,
C=C[C@]1(C)CC[C@@H](C(=C)C)C[C@H]1C(=C)C [β-Elemene],1099.979 RFU,,,
OC[C@H]1O[C@@H](OC[C@H]2O[C@@H](O)[C@H](O)[C@@H](O)[C@@H]2O)[C@H](O)[C@@H](O)[C@@H]1O [β-Gentiobiose],997.1115 RFU,,,
C=C1CCC2CC1C2(C)C (stereo not drawn) [β-Pinene],851.1223 RFU,,,
CC(C)=CCC/C(C)=C/CC/C(C)=C/CC[C@]1(C)CCc2c(C)c(O)cc(C)c2O1 [β-Tocotrienol],668.6336 RFU,,,
N#CC[C@H](N)C(=O)O [β-cyano-L-Alanine],869.3786 RFU,,,
N[C@@H](CCC(=O)N[C@@H](Cc1ccccc1)C(=O)O)C(=O)O [γ-Glu-Phe],1077.051 RFU,,,
CCC1CCC(=O)O1 (stereo not drawn) [γ-Hexalactone],1020.576 RFU,,,
CC(C)=CCC/C(C)=C/CC/C(C)=C/CC[C@]1(C)CCc2cc(O)c(C)c(C)c2O1 [γ-Tocotrienol],703.9438 RFU and 665.753 RFU,,,
CCCCCC1CCCC(=O)O1 (stereo not drawn) [δ-Decalactone],1070.795 RFU,,,
CC(C)=CCC/C(C)=C/CC/C(C)=C/CC[C@]1(C)CCc2cc(O)cc(C)c2O1 [δ-Tocotrienol],1061.05 RFU,,,
O=C1CCCCCCCCCCCCCCO1 [ω-Pentadecalactone],959.0542 RFU,,,
(+)-Catechin hydrate,928.2252 RFU,,,
(+)-Secoisolariciresinol,1148.179 RFU,,,
(−)-Epiafzelechin,915.141 RFU,,,
(−)-Epigallocatechin,928.0708 RFU,,,
(−)-Epigallocatechin Gallate,333.087 RFU,,,
(−)-Fenchone,812.4614 RFU,,,

Molecule,Lipase (RFU),Hit in lipase inhibition screen (in words),Effect on lipase / lipolysis (in words),Synergistic effect in combination testing (in words)
(−)-Limonene,914.6466 RFU and 836.6929 RFU,,,
(−)-Menthone,1263.606 RFU,,,
Adenine (hemisulfate),842.2125 RFU,,,
Alliin,782.3552 RFU,,,
Anacardic Acid,908.2535 RFU,,,
Carbinoxamine maleate salt,807.8179 RFU,,,
Catechin,945.7654 RFU,,,
Chicoric acid,1008.153 RFU,,,
Chondroitin (sulfate),714.418 RFU,,,
Chondroitin Sulfate,348.836 RFU,,,
Chondroitin Sulfate C,308.9045 RFU,significantly inhibited lipase activity,,
Curdlan,876.416 RFU,,,
"Cytidine-2′,3′-cyclic monophosphate",1332.358 RFU,,,
D-(−)-Quinic acid,827.4863 RFU,,,
D-Pantothenic acid (hemicalcium salt),932.4036 RFU,,,
Dextran,949.1554 RFU,,,
Dextrin,915.3079 RFU,,,
Disodium succinate,1168.659 RFU and 874.998 RFU,,,
Eicosadienoic acid,795.3404 RFU,,,
Elemicin,1009.834 RFU,,,
Erythrosine B,836.3958 RFU,,,
Estrone sulfate (potassium),961.3154 RFU,,,
Fucoidan from Macrocystis pyrifera,384.150 RFU,,,
Gentiobiose,1106.66 RFU,,,
Ginkgolic Acid,924.5734 RFU,,,
Ginkgolide C,1234.872 RFU,,,

Molecule,Lipase (RFU),Hit in lipase inhibition screen (in words),Effect on lipase / lipolysis (in words),Synergistic effect in combination testing (in words)
Gluconate (Calcium),840.1946 RFU,,,
Glycogen,745.3227 RFU,,,
Heparan Sulfate,1097.057 RFU,,,
Hyaluronic acid,1101.829 RFU,,,
Inulin,793.2721 RFU and 805.6516 RFU and 1006.043 RFU,,did not inhibit or slow human milk lipolysis,did not have synergistic effects
Isobergapten,1247.074 RFU,,,
Isoliquiritin apioside,821.8958 RFU,,,
Lactate,1249.686 RFU,,,
Laminarin,336.7375 RFU and 594.197 RFU,significantly inhibited lipase activity,,
Lignin,849.2641 RFU,,,
Liquiritin apioside,875.5815 RFU,,,
Lupeol acetate,966.2407 RFU,,,
Maltohexaose,977.7036 RFU,,,
Maltopentaose,907.876 RFU,,,
Maltotetraose,824.2713 RFU,,,
Maltotriose,917.8057 RFU and 1104.158 RFU,,,
Mannan,1091.353 RFU,,,
Medicarpin,622.3141 RFU,,,
Notoginsenoside Fe,902.3283 RFU,,,
O-Nornuciferine,773.2053 RFU,,,
Phytol,1207.906 RFU and 715.6019 RFU,,,
Pinoresinol,1253.681 RFU,,,
Prosapogenin A,965.3667 RFU,,,
